# Assay results as given in patent US20220370416A1, “COMPOUNDS AND METHODS FOR TARGETED DEGRADATION OF KRAS” (Arvinas Operations, Inc., priority 2020, published 2022).
# Target: HiBit-KRAS^G12C (Homo sapiens, UniProt P01116, G12C)
# Experiment: HiBit degradation assay in SW1573 HiBit-KRas^G12C cells
# Assay type: cell-based
# Design: expressed in transfected cells; host or cells: SW1573 (clone E6), modified pcDNA3.1 vector, TK promoter
# Settings: 0.1% DMSO, 24 hours; for Dmax: SW1573, SW1573 HiBit-KRas^G12C, read-out: KRas^G12C-HiBit (SW1573; 0.1% DMSO) Dmax**; for DC50: SW1573 HiBit-KRas^G12C, read-out: KRas^G12C-HIBit (SW1573; 0.1% DMSO) DC50*
# Experimental: Reagents. SW1573 (CRL-2170) and MiaPaCa-2 (CRL-1420) cells were purchased from ATCC. Both cell lines are […] for the G12C mutation in KRAS. SW1573 cells were cultured in DMEM+F12+Glutamax (+Sodium Bicarbonate, +sodium pyruvate, Thermofisher scientific, #10565) supplemented with 10% FBS (Thermofisher scientific, #2060357) and 1% Antibiotic-Antimycotic (Thermofisher scientific, #15240096). MiaPaCa-2 cells were cultured in DMEM+Glutamax media (Thermofisher scientific, #10566) supplemented with 10% FBS (Thermofisher scientific, #2060357) and 1% Antibiotic-Antimycotic (Thermofisher scientific, #15240096). For degradation assays, 384 well plates were purchased from Corning (Corning® CellBIND® 384-well Flat Clear Bottom Black Polystyrene Microplates, Low Flange, #3770). Gambogic acid was purchased from Selleckchem (#S2448). Alamar blue was purchased from Thermofisher scientific (A50101) and used according to manufacturer instructions. The Nano-Glo® HiBit Lytic Detection System and Nano-Glo® HiBit Blotting System were purchased from Promega (#N3050 and #N2410) and used according to manufacturer instructions.
# To create the SW1573 HiBit-KRAS^G12C cell line, the nucleotide sequence encoding the 11 amino acid HiBit tag from Promega (Schwinn, M. K. et al. (2018) CRISPR-mediated tagging of endogenous proteins with a luminescent peptide. ACS Chem. Biol. 13(2), 467-474) was appended to the N-terminus of the KRAS^G12C coding sequence. This synthesized DNA was cloned into a modified pcDNA3.1 vector under the control of the thymidine kinase (TK) promoter. This HiBit-KRAS^G12C expressing plasmid was transfected into parental SW1573 cells and colonies were selected using 400 μg/mL zeocin. The resulting clonal lines were screened for expression of HiBit-KRAS^G12C protein using Nano-Glo® HiBit Blotting System. A luminescent band of the correct size for HiBit-KRAS^G12C was detected in several clones. Clone E6 was selected for further studies.
# Either SW1573 HiBit-KRas^G12C or MiaPaCa-2 HiBit-KRas^G12C cells were plated at 9000 cells/well in a 384 well plate (Corning #3770). Exemplary heterobifunctional molecules and positive controls were diluted in the appropriate cell media and applied to the plated cells resulting in a final concentration titration of 10 μM to 20 nM in either 0.1% or 0.5% dimethyl sulfoxide (DMSO). Gambogic acid was used as a positive control for cytotoxicity and titrated from 10 μM to 78 nM. All assays were performed in triplicate. Cells were treated with compounds for 24 hours at 37° C. in an incubator containing 5% CO2. Following treatment, alamar blue was used to determine if any compounds led to a loss in cell viability after 24 hours. The 10× alamar blue reagent was added to a final concentration of 1× as recommended by the manufacturer and cells were returned to the incubator for 4 hours. Plates were then allowed to equilibrate to room temperature and fluorescence was measured using a Perkin-Elmer EnVision. After completion of the fluorescence read, the liquid from each well was removed and the cells were washed with PBS. The Nano-Glo® HiBiT detection reagent was prepared according to the manufacturer's instructions and added to each well after the PBS wash was removed. Following incubation at room temperature for 45 minutes, the luminescence was read using the ultra-sensitive luminescence aperture on the Envision instrument.
# Fluorescence values from the alamar blue treatment were normalized to the DMSO only control for each compound titration. We hypothesized that compounds that led to a ≥50% loss in cell viability of the KRAS-independent SW1573 HiBit-KRas^G12C cells were likely generally cytotoxic and loss of HiBit-KRAS^G12C signal from these compounds may be due to lower cell number and not specific KRAS^G12C degradation. These points were therefore excluded from the data analysis for degradation. […]
# HiBit-KRAS^G12C, sequence (P01116 1-186 isoform P01116-2 G12C limits assumed): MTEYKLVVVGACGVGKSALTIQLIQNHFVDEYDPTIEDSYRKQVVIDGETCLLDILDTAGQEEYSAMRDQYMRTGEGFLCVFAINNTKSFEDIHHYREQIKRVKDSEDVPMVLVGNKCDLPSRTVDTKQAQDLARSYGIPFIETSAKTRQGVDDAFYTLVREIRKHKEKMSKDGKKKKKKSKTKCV
SMILES,Dmax,DC50
"C=CC(=O)N1CCN(c2nc(O[C@H](C)CN3CCC(OCCOCC(=O)N[C@H](C(=O)N4C[C@H](O)C[C@H]4C(=O)N[C@@H](C)c4ccc(-c5scnc5C)cc4)C(C)(C)C)CC3)nc3c2CCN(c2cccc4ccccc24)C3)C[C@@H]1CC#N [Compound 58, (2S,4R)-1-[(2S)-2-{2-[2-({1-[(2R)-2-({4-[(3S)-3-(cyanomethyl)-4-(prop-2-enoyl)piperazin-1-yl]-7-(naphthalen-1-yl)-5H,6H,7H,8H-pyrido[3,4-d]pyrimidin-2-yl}oxy)propyl]piperidin-4-yl}oxy)ethoxy]acetamido}-3,3-dimethylbutanoyl]-4-hydroxy-N-[(1S)-1-[4-(4-methyl-1,3-thiazol-5-yl)phenyl]ethyl]pyrrolidine-2-carboxamide]",–,> 1000 nM
"C=CC(=O)N1CCN(c2nc(OCCN3CCC(OCCOCC(=O)N[C@H](C(=O)N4C[C@H](O)C[C@H]4C(=O)N[C@@H](C)c4ccc(-c5scnc5C)cc4)C(C)(C)C)CC3)nc3c2CCN(c2cccc4cccc(C)c24)C3)C[C@@H]1CC#N [Compound 30, (2S,4R)-1-[(2S)-2-{2-[2-({1-[2-({4-[(3S)-3-(cyanomethyl)-4-(prop-2-enoyl)piperazin-1-yl]-7-(8-methylnaphthalen-1-yl)-5H,6H,7H,8H-pyrido[3,4-d]pyrimidin-2-yl}oxy)ethyl]piperidin-4-yl}oxy)ethoxy]acetamido}-3,3-dimethylbutanoyl]-4-hydroxy-N-[(1S)-1-[4-(4-methyl-1,3-thiazol-5-yl)phenyl]ethyl]pyrrolidine-2-carboxamide]",< 35%,> 1000 nM
"C=CC(=O)N1CCN(c2nc(O[C@H](C)CN3CCC(CN4CC5(CN(CC(=O)N[C@H](C(=O)N6C[C@H](O)C[C@H]6C(=O)N[C@@H](C)c6ccc(-c7scnc7C)cc6)C(C)(C)C)C5)C4)CC3)nc3c(F)c(-c4cc(O)cc5ccccc45)c(Cl)cc23)CC1 [Compound 35, (2S,4R)-1-[(2S)-2-{2-[6-({1-[(2R)-2-{[6-chloro-8-fluoro-7-(3-hydroxynaphthalen-1-yl)-4-[4-(prop-2-enoyl)piperazin-1-yl]quinazolin-2-yl]oxy}propyl]piperidin-4-yl}methyl)-2,6-diazaspiro[3.3]heptan-2-yl]acetamido}-3,3-dimethylbutanoyl]-4-hydroxy-N-[(1S)-1-[4-(4-methyl-1,3-thiazol-5-yl)phenyl]ethyl]pyrrolidine-2-carboxamide]",–,> 1000 nM
C=CC(=O)N1CCN(c2nc(O[C@H](C)CN3CCC(OCCOCCOCCOCCOCCOc4cc(-c5scnc5C)ccc4CNC(=O)[C@@H]4C[C@@H](O)CN4C(=O)[C@@H](c4cc(C)no4)C(C)C)CC3)nc3c(F)c(-c4cc(O)cc5ccccc45)c(Cl)cc23)CC1 [Compound 80],35 to 70%,> 1000 nM
"C=CC(=O)N1CCN(c2nc(O[C@H](C)CN3CCC(OCCOCCOCCOCCOCCOCCOCC(=O)N[C@H](C(=O)N4C[C@H](O)C[C@H]4C(=O)N[C@@H](C)c4ccc(-c5scnc5C)cc4)C(C)(C)C)CC3)nc3c(F)c(-c4cc(O)cc5ccccc45)c(Cl)cc23)CC1 [Compound 88, (2S,4R)-1-[(2S)-2-[20-({1-[(2R)-2-{[6-chloro-8-fluoro-7-(3-hydroxynaphthalen-1-yl)-4-[4-(prop-2-enoyl)piperazin-1-yl]quinazolin-2-yl]oxy}propyl]piperidin-4-yl}oxy)-3,6,9,12,15,18-hexaoxaicosanamido]-3,3-dimethylbutanoyl]-4-hydroxy-N-[(1S)-1-[4-(4-methyl-1,3-thiazol-5-yl)phenyl]ethyl]pyrrolidine-2-carboxamide]",–,> 1000 nM
"C=CC(=O)N1CCN(c2nc(OCCN3CCC(OCCOCC(=O)N[C@H](C(=O)N4C[C@H](O)C[C@H]4C(=O)N[C@@H](C)c4ccc(-c5scnc5C)cc4)C(C)(C)C)CC3)nc3c(F)c(-c4cccc5cccc(C)c45)c(Cl)cc23)C[C@@H]1CC#N [Compound 23, (2S,4R)-1-[(2S)-2-{2-[2-({1-[2-({6-chloro-4-[(3S)-3-(cyanomethyl)-4-(prop-2-enoyl)piperazin-1-yl]-8-fluoro-7-(8-methylnaphthalen-1-yl)quinazolin-2-yl}oxy)ethyl]piperidin-4-yl}oxy)ethoxy]acetamido}-3,3-dimethylbutanoyl]-4-hydroxy-N-[(1S)-1-[4-(4-methyl-1,3-thiazol-5-yl)phenyl]ethyl]pyrrolidine-2-carboxamide]",–,> 1000 nM

# Now from value to molecule:
Dmax,DC50,SMILES
35 to 70%,> 1000 nM,"C=CC(=O)N1CCN(c2nc(O[C@H](C)CN3CCC(OCCOCC(=O)N[C@H](C(=O)N4C[C@H](O)C[C@H]4C(=O)N[C@@H](C)c4ccc(-c5scnc5C)cc4)C(C)(C)C)CC3)nc3c(Oc4c(Cl)c(F)cc5[nH]ncc45)nc(Cl)cc23)CC1 [Compound 26, (2S,4R)-1-[(2S)-2-{2-[2-({1-[(2R)-2-({6-chloro-8-[(5-chloro-6-fluoro-1H-indazol-4-yl)oxy]-4-[4-(prop-2-enoyl)piperazin-1-yl]pyrido[3,4-d]pyrimidin-2-yl}oxy)propyl]piperidin-4-yl}oxy)ethoxy]acetamido}-3,3-dimethylbutanoyl]-4-hydroxy-N-[(1S)-1-[4-(4-methyl-1,3-thiazol-5-yl)phenyl]ethyl]pyrrolidine-2-carboxamide]"
–,> 1000 nM,"C=CC(=O)N1CCN(c2nc(OCCN3CCC(COCC(=O)N[C@H](C(=O)N4C[C@@H](O)C[C@H]4C(=O)N[C@@H](C)c4ccc(-c5scnc5C)cc4)C(C)(C)C)CC3)nc3c(F)c(-c4cc(O)cc5ccccc45)c(Cl)cc23)CC1 [Compound 8, (2S,4S)-1-[(2S)-2-(2-{[1-(2-{[6-chloro-8-fluoro-7-(3-hydroxynaphthalen-1-yl)-4-[4-(prop-2-enoyl)piperazin-1-yl]quinazolin-2-yl]oxy}ethyl)piperidin-4-yl]methoxy}acetamido)-3,3-dimethylbutanoyl]-4-hydroxy-N-[(1S)-1-[4-(4-methyl-1,3-thiazol-5-yl)phenyl]ethyl]pyrrolidine-2-carboxamide]"
–,> 1000 nM,"C=CC(=O)N1CCN(c2nc(O[C@H](C)CN3CCC(CC(=O)N[C@H](C(=O)N4C[C@H](O)C[C@H]4C(=O)N[C@@H](C)c4ccc(-c5scnc5C)cc4)C(C)(C)C)CC3)nc3c(F)c(-c4cc(O)cc5ccccc45)c(Cl)cc23)CC1 [Compound 38, (2S,4R)-1-[(2S)-2-(2-{1-[(2R)-2-{[6-chloro-8-fluoro-7-(3-hydroxynaphthalen-1-yl)-4-[4-(prop-2-enoyl)piperazin-1-yl]quinazolin-2-yl]oxy}propyl]piperidin-4-yl}acetamido)-3,3-dimethylbutanoyl]-4-hydroxy-N-[(1S)-1-[4-(4-methyl-1,3-thiazol-5-yl)phenyl]ethyl]pyrrolidine-2-carboxamide]"
–,> 1000 nM,"C=CC(=O)N1CCN(c2nc(OCCN3CCC(OCCOc4cc([C@H](C(=O)N5C[C@@H](O)C[C@H]5C(=O)N[C@@H](C)c5ccc(-c6scnc6C)cc5)C(C)C)on4)CC3)nc3c(F)c(-c4cc(O)cc5ccccc45)c(Cl)cc23)C[C@@H]1CC#N [Compound 2, (2S,4S)-1-[(2R)-2-{3-[2-({1-[2-({6-chloro-4-[(3S)-3-(cyanomethyl)-4-(prop-2-enoyl)piperazin-1-yl]-8-fluoro-7-(3-hydroxynaphthalen-1-yl)quinazolin-2-yl}oxy)ethyl]piperidin-4-yl}oxy)ethoxy]-1,2-oxazol-5-yl}-3-methylbutanoyl]-4-hydroxy-N-[(1S)-1-[4-(4-methyl-1,3-thiazol-5-yl)phenyl]ethyl]pyrrolidine-2-carboxamide]"
